Measured values as given in US20210340629A1, “BIOMARKERS FOR CANCER THERAPY” (The Council of the Queensland Institute of Medical Research, priority 2018, published 2021).

Key:
normal melanocytes = experiment: Cell viability by MTT assay, normal melanocytes; assay type: cell-based; conditions: 5 μM, 48 hours, FIG. 2
Procedure: UNC0642 was purchased from Sigma Aldrich. The panel of human melanoma cell lines, derived from cutaneous melanomas, is shown in Table 1 and the cells have all been previously described. Cells were maintained in Roswell Park Memorial Institute (RPMI) 1640 supplemented with 10% fetal bovine serum (FBS), 100 U/mL penicillin, and 100 µg/mL streptomycin in a humidified atmosphere of 5% CO2 at 37° C. Normal melanocytes were grown in Clonetics™ MGM™-4 Melanocyte Growth Medium-4 supplemented with CaCl2, phorbol-12-myristate 13-acetate (PMA), recombinant human fibroblast growth factor basic (rhFGF-B), recombinant human insulin (rh-insulin), hydrocortisone, bovine pituitary extract (BPE), FBS and GA-1000 (30 μg/ml Gentamycin and 15 ng/ml Amphotericin) (Lonza).
For proliferation studies, cells (5×10^3) were seeded in 96-place wells and allowed to adhere overnight, and incubated in fresh growth medium in the presence of either the G9a inhibitor UNC0642 (Sigma Aldrich) or the vehicle control DMSO (Sigma Aldrich). Proliferation was evaluated via real-time imaging using IncuCyte Zoom (Essen BioScience) and/or by performing a 3-(4,5-dimethylthiazol-2-yl)-2,5-diphenyltetrazolium bromide ([…]) assay. After monitoring the cells, 20 μL of MTT (5 mg/mL; Sigma-Aldrich) was added. […] The absorbance value (optical density) of each well was measured at 570 nm.

[1] = test system: C006 and C092 melanoma cell lines; experiment: Proliferation by IncuCyte Zoom real time cell imaging, less sensitive lines; assay type: cell-based, human; conditions: C006 and C092, 5 μM, 48 hours, compared to vehicle
Procedure: Four cell lines were then chosen for further analysis. These were C006 (NRAS mt), C092 (Triple wt), C008 (NF1 mt) and D05 (BRAF mt). These four lines are representatives of the 4 cutaneous melanoma genomic subtypes and include 2 lines (C008 and D05) that were very sensitive to the inhibitor and 2 lines that were less sensitive (C006 and C092). Proliferation of these lines was evaluated by real time cell imaging using IncuCyte Zoom where cells were grown for 48 hours in the presence or absence of 5 μM UNC0642.
For proliferation studies, cells (5×10^3) were seeded in 96-place wells and allowed to adhere overnight, and incubated in fresh growth medium in the presence of either the G9a inhibitor UNC0642 (Sigma Aldrich) or the vehicle control DMSO (Sigma Aldrich). Proliferation was evaluated via real-time imaging using IncuCyte Zoom (Essen BioScience) and/or by performing a 3-(4,5-dimethylthiazol-2-yl)-2,5-diphenyltetrazolium bromide ([…]) assay. After monitoring the cells, 20 μL of MTT (5 mg/mL; Sigma-Aldrich) was added. The plates were incubated at 37° C. for 3 h before the supernatants were removed, and 100 μL of isopropanol was added to each well. The absorbance value (optical density) of each well was measured at 570 nm.

[2] = test system: PD-L1 and PD-1 in CD8+ T cells; experiment: Flow cytometry analysis of tumor infiltrating lymphocytes from AT3 tumors; assay type: in vivo, C57BL/6 mice; conditions: TILs from AT3 tumors, UNC0642 25 mg/kg every 2 days for 14 days, FIG. 18
Excerpt: C57BL/6 mice were purchased from the ARC Animal Resources Centre and used between the ages of 6 and 16 weeks. Groups of 3 to 8 mice per experiment were used for experimental assays, to ensure adequate power to detect biological differences. All experiments were approved by the QIMR Berghofer Medical Research Institute Animal Ethics Committee.
The C57BL/6 AT3 mammary adenocarcinoma (obtained from Dr. Trina Stewart in 2009, Peter MacCallum Cancer Centre, Melbourne, Australia) were maintained as previously described (Casciello et al PNAS 2017). The AT3 cell line was tested negative for mycoplasma. For in vivo experiments, 1×10^5 cells were subcutaneously injected into mice in a 100 μL volume.
AT3 tumor growth was measured using a digital caliper, and tumor volumes were presented as mean±SEM. For flow cytometry analyses of intratumor immune cells, mice bearing established AT3 tumor (days 14-19) were treated with the indicated antibodies or reagents and immune cells were isolated 48 to 72 hours post treatment.
Tumors tissues were harvested from mice that had been treated with mAb or otherwise and processed for flow cytometry analysis. […]

COc1cc2c(NC3CCN(C(C)C)CC3)nc(N3CCC(F)(F)CC3)nc2cc1OCCCN1CCCC1 [UNC0642]
survival of the normal melanocyte cell culture (normal melanocytes): unaffected
proliferation [1]: much less affected
PD-L1 and PD-1 in CD8+ T cells [2]: down-regulation
